For the assay, the target named is T1, human RXFP1 (Homo sapiens, UniProt Q9HBX9).
T1 construct: expressed in transfected cells
T1 sequence (Q9HBX9 1-757): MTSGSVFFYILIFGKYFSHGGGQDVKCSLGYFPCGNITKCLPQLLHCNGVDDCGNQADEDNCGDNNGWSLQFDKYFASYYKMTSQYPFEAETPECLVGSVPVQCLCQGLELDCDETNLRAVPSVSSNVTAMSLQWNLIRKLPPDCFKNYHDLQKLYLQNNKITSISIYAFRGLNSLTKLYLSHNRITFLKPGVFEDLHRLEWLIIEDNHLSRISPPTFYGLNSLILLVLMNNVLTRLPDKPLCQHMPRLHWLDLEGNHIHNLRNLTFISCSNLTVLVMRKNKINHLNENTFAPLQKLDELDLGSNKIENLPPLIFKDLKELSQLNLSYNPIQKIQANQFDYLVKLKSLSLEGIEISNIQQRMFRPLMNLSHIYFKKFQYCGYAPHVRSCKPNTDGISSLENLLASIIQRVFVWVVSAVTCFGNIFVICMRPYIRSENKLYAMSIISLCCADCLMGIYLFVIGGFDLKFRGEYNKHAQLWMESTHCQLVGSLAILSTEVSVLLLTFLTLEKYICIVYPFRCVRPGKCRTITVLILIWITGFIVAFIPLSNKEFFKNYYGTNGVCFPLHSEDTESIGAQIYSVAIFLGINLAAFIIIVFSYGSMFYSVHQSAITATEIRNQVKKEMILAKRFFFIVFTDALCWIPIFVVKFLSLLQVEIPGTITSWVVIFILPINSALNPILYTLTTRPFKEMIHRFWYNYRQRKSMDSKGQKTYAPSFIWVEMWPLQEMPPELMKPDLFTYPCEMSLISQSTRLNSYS
The assay can be described thus: hRXFP1 HEK293 cAMP assay (HTRF). The assay is classed as cell-based. As to conditions: HEK293 cells stably expressing human RXFP1; 30 min at rt; intracellular cAMP by HTRF. The procedure, abridged:
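Agonism is measured as cAMP by HTRF, quantified from a standard curve via the 665/590 nm ratio and fitted with a four-parameter logistic equation. Compounds (0.010 nM to 50 μM final, 2% DMSO) were applied for 30 min at rt to human RXFP1-expressing HEK293 cells in assay buffer containing 0.5 mM IBMX.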

The results in this text go back to US20260265233A1, “BENZOTHIOPHENE DERIVATIVES AS RXFP1 AGONISTS” (BRISTOL-MYERS SQUIBB COMPANY, priority 2021, published 2026).

Consider `COc1ccc(N2CCC(NCCS(C)(=O)=O)C2)cc1C(=O)Nc1c(C(=O)Nc2ccc(F)c(C(F)(F)F)c2)sc2cc(C(F)(F)F)ccc12` (stereo not shown) [Example 67, N-(4-fluoro-3-(trifluoromethyl)phenyl)-3-(2-methoxy-5-(3-((2-(methylsulfonyl)ethyl)amino)pyrrolidin-1-yl)benzamido)-6-(trifluoromethyl) benzo[b] thiophene-2-carboxamide], for which the response was half-maximal at 1.29 µM (EC50).

For `COc1ccc(C2CCC(NCC(=O)O)CC2)cc1C(=O)Nc1c(C(=O)Nc2ccc(F)c(C(F)(F)F)c2)sc2cc(C(F)(F)F)ccc12` (single isomer, unassigned) [Example 211, (4-(3-((2-((4-fluoro-3-(trifluoromethyl)phenyl)carbamoyl)-6-(trifluoromethyl)benzo[b]thiophen-3-yl)carbamoyl)-4-methoxyphenyl)cyclohexyl) glycine], the EC50 stood at 2.77 µM.

With `COc1ccc(C2CC2C(C)(C)O)cc1C(=O)Nc1c(C(=O)Nc2ccc(F)c(C(F)(F)F)c2)sc2cc(C(F)(F)F)ccc12` (single isomer, unassigned) [Example 160, N-[4-fluoro-3-(trifluoromethyl)phenyl]-3-{5-[2-(2-hydroxypropan-2-yl)cyclopropyl]-2-methoxy-benzamido}-6-(trifluoromethyl)-1-benzothiophene-2-carboxamide], a half-maximal effect (EC50) was put at 2.3 µM.

Take `COc1ccc(N2CCCC(NCC(N)=O)C2)cc1C(=O)Nc1c(C(=O)Nc2ccc(F)c(C(F)(F)F)c2)sc2cc(C(F)(F)F)ccc12` (stereo in doubt) [Example 210, (S)-3-(5-(3-((2-amino-2-oxoethyl)amino)piperidin-1-yl)-2-methoxy-benzamido)-N-(4-fluoro-3-(trifluoromethyl)phenyl)-6-(trifluoromethyl) benzo[b] thiophene-2-carboxamide]: the EC50 came out at 1.93 µM.

`COc1cc(F)c(C(=O)N2CC(C(C)(C)O)C2)cc1C(=O)Nc1c(C(=O)Nc2ccc(F)c(C(F)(F)F)c2)sc2cc(C(F)(F)F)ccc12` [Example 182, N-(4-fluoro-3-(trifluoromethyl)phenyl)-3-(4-fluoro-5-(3-(2-hydroxypropan-2-yl)azetidine-1-carbonyl)-2-methoxy-benzamido)-6-(trifluoromethyl) benzo[b] thiophene-2-carboxamide] registered an EC50 of 0.357 µM.

As to `COc1ccc(C2CCCC(NC3COC3)C2)cc1C(=O)Nc1c(C(=O)Nc2ccc(F)c(C(F)(F)F)c2)sc2cc(C(F)(F)F)ccc12` (single isomer, unassigned) [Example 62, N-(4-fluoro-3-(trifluoromethyl)phenyl)-3-(2-methoxy-5-(3-(oxetan-3-ylamino)cyclohexyl)benzamido)-6-(trifluoromethyl) benzo[b] thiophene-2-carboxamide], the EC50 amounted to 1.46 µM.

`COc1ccc(C2CCN(C(=O)C3(O)CC3)C2)cc1C(=O)Nc1c(C(=O)Nc2ccc(F)c(C(F)(F)F)c2)sc2cc(C(F)(F)F)ccc12` (stereo not shown) [Example 138, N-(4-fluoro-3-(trifluoromethyl)phenyl)-3-(5-(1-(1-hydroxycyclo-propane-1-carbonyl)pyrrolidin-3-yl)-2-methoxy-benzamido)-6-(trifluoromethyl) benzo[b] thiophene-2-carboxamide] registered an EC50 of 0.213 µM.

`COc1ccc(C2CC2C(=O)NCC(C)(C)O)cc1C(=O)Nc1c(C(=O)Nc2ccc(F)c(C(F)(F)F)c2)sc2cc(C(F)(F)F)ccc12` (stereo not shown) [Example 166, N-[4-fluoro-3-(trifluoromethyl)phenyl]-3-(5-{2-[(2-hydroxy-2-methylpropyl)carbamoyl]cyclopropyl}-2-methoxy-benzamido)-6-(trifluoromethyl)-1-benzothiophene-2-carboxamide] displayed an EC50 of 1.63 µM.

As for `COc1ccc(C2=NOC(C)(CO)C2)cc1C(=O)Nc1c(C(=O)Nc2ccc(F)c(C(F)(F)F)c2)sc2cc(C(F)(F)F)ccc12` (single isomer, unassigned) [Example 254, N-(4-fluoro-3-(trifluoromethyl)phenyl)-3-(5-(5-(hydroxymethyl)-5-methyl-4,5-dihydroisoxazol-3-yl)-2-methoxy-benzamido)-6-(trifluoromethyl) benzo[b] thiophene-2-carboxamide], the EC50 worked out at 1.02 µM.

`COc1ccc(C2=NOC3CC(CO)CC23)cc1C(=O)Nc1c(C(=O)Nc2ccc(F)c(C(F)(F)F)c2)sc2cc(C(F)(F)F)ccc12` (single isomer, unassigned) [Example 268, N-[4-fluoro-3-(trifluoromethyl)phenyl]-3-{5-[5-(hydroxymethyl)-3aH,4H,5H,6H, 6aH-cyclopenta[d] [1,2]oxazol-3-yl]-2-methoxy-benzamido}-6-(trifluoromethyl)-1-benzothiophene-2-carboxamide] gave an EC50 of 0.0049 µM.

`COc1ccc(-c2cccc(C(=O)O)c2F)cc1C(=O)Nc1c(C(=O)Nc2ccc(F)c(C(F)(F)F)c2)sc2cc(C(F)(F)F)ccc12` [Example 14, 2-fluoro-3′-((2-((4-fluoro-3-(trifluoromethyl)phenyl)carbamoyl)-6-(trifluoromethyl)benzo[b]thiophen-3-yl)carbamoyl)-4′-methoxy-[1,1′-biphenyl]-3-carboxylic acid] yielded an EC50 of 0.135 µM.

Turning to `COc1ccc(C(=O)N2CC(CO)C2)cc1C(=O)Nc1c(C(=O)Nc2ccc(F)c(C(F)(F)F)c2)sc2cc(C(F)(F)F)ccc12` [Example 177, N-(4-fluoro-3-(trifluoromethyl)phenyl)-3-(5-(3-(hydroxymethyl)azetidine-1-carbonyl)-2-methoxy-benzamido)-6-(trifluoromethyl) benzo[b] thiophene-2-carboxamide], the EC50 was determined as 0.147 µM.

The compound `COc1ccc(C2CCCC(O)C2)cc1C(=O)Nc1c(C(=O)Nc2ccc(F)c(C(F)(F)F)c2)sc2cc(C(F)(F)F)ccc12` (single isomer, unassigned) [Example 33, N-(4-fluoro-3-(trifluoromethyl)phenyl)-3-(5-(3-hydroxycyclohexyl)-2-methoxybenzamido)-6-(trifluoromethyl)benzo[b]thiophene-2-carboxamide] returned a half-maximal effective concentration (EC50) of 0.216 µM.

As for `COc1ccc(C2CCCN(C(=O)C3CCC3)C2)cc1C(=O)Nc1c(C(=O)Nc2ccc(F)c(C(F)(F)F)c2)sc2cc(C(F)(F)F)ccc12` (stereo not shown) [Example 98, 3-(5-(1-(cyclobutane-carbonyl)piperidin-3-yl)-2-methoxy-benzamido)-N-(4-fluoro-3-(trifluoromethyl)phenyl)-6-(trifluoromethyl) benzo[b] thiophene-2-carboxamide], the EC50 was 0.186 µM.

As to `COc1ccc(C(=O)N2CCO[C@@H](CO)C2)cc1C(=O)Nc1c(C(=O)Nc2ccc(F)c(C(F)(F)F)c2)sc2cc(C(F)(F)F)ccc12` [Example 129, (R)-N-(4-fluoro-3-(trifluoromethyl)phenyl)-3-(5-(2-(hydroxymethyl)morpholine-4-carbonyl)-2-methoxy-benzamido)-6-(trifluoromethyl) benzo[b] thiophene-2-carboxamide], the midpoint of the response, the EC50, lay at 0.444 µM.

For the compound `COc1ccc(C2CCCN(CC(C)C)C2)cc1C(=O)Nc1c(C(=O)Nc2ccc(F)c(C(F)(F)F)c2)sc2cc(C(F)(F)F)ccc12` (stereo not shown) [Example 89, N-(4-fluoro-3-(trifluoromethyl)phenyl)-3-(5-(1-isobutylpiperidin-3-yl)-2-methoxy-benzamido)-6-(trifluoromethyl) benzo[b] thiophene-2-carboxamide], a half-maximal effect (EC50) was put at 2.18 µM.

In turn, `COc1ccc(C2=NOC3CNCC23)cc1C(=O)Nc1c(C(=O)Nc2ccc(F)c(C(F)(F)F)c2)sc2cc(C(F)(F)F)ccc12` (stereo not shown) [Example 247, N-(4-fluoro-3-(trifluoromethyl)phenyl)-3-(2-methoxy-5-(3a,5,6,6a-tetrahydro-4H-pyrrolo[3,4-d]isoxazol-3-yl)benzamido)-6-(trifluoromethyl) benzo[b] thiophene-2-carboxamide] returned an EC50 of 0.531 µM.

As for `COc1ccc(N2CCCC(C(=O)NC3COC3)C2)cc1C(=O)Nc1c(C(=O)Nc2ccc(F)c(C(F)(F)F)c2)sc2cc(C(F)(F)F)ccc12` (single isomer, unassigned) [Example 188, 1-(3-((2-((4-fluoro-3-(trifluoromethyl)phenyl)carbamoyl)-6-(trifluoromethyl)benzo[b]thiophen-3-yl)carbamoyl)-4-methoxyphenyl)-N-(oxetan-3-yl)piperidine-3-carboxamide], the EC50 is 0.772 µM.

Compound `COc1ccc(C2CCCN(CCO)C2)cc1C(=O)Nc1c(C(=O)Nc2ccc(F)c(C(F)(F)F)c2)sc2cc(C(F)(F)F)ccc12` (stereo not shown) [Example 85, N-(4-fluoro-3-(trifluoromethyl)phenyl)-3-(5-(1-(2-hydroxyethyl)piperidin-3-yl)-2-methoxy-benzamido)-6-(trifluoromethyl) benzo[b] thiophene-2-carboxamide] returned an EC50 of 1.11 µM.
